#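 Exposure lasted 48 hours, with cells grown in 96-well plates and compounds tested at five concentrations. At the TGI there is no net growth.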
# Columns and labels:
# Test in all cases: growth of human tumour cells (NCI), 48 h
# [1] = test system: OVCAR-4 ovarian
# [2] = test system: SF-295 CNS
# [3] = test system: K-562 leukemia
# [4] = test system: OVCAR-3 ovarian
# [5] = test system: SW-620 colon
# [6] = test system: UO-31 renal
# [7] = test system: T-47D breast
# [8] = test system: MALME-3M melanoma
# [9] = test system: NCI-H23 lung
# [10] = test system: A498 renal
# [11] = test system: BT-549 breast
# [12] = test system: HS 578T breast
# [13] = test system: EKVX NSCLC
# [14] = test system: ACHN renal
# [15] = test system: DU-145 prostate
# [16] = test system: HL-60(TB) leukemia
# [17] = test system: A549 NSCLC
# [18] = test system: SK-OV-3 ovarian
Compound,TGI [1] [µM],TGI [2] [µM],TGI [3] [µM],TGI [4] [µM],TGI [5] [µM],TGI [6] [µM],TGI [7] [µM],TGI [8] [µM],TGI [9] [µM],TGI [10] [µM],TGI [11] [µM],TGI [12] [µM],TGI [13] [µM],TGI [14] [µM],TGI [15] [µM],TGI [16] [µM],TGI [17] [µM],TGI [18] [µM]
C[n+]1ccc(/C2=C3\C=CC(=N3)/C(c3cc[n+](C)cc3)=c3/cc/c([nH]3)=C(\c3cc[n+](C)cc3)C3=N/C(=C(/c4cc[n+](C)cc4)C4C=CC2N4)C=C3)cc1,> 100,> 100,> 100,> 100,> 100,> 100,> 100,> 100,> 100,> 100,> 100,> 100,> 100,> 100,> 100,> 100,> 100,> 100
NCCSS(=O)(=O)CCN,> 100,> 100,> 100,> 100,> 100,> 100,> 100,> 100,> 100,> 100,> 100,> 100,> 100,> 100,> 100,> 100,> 100,> 100
Oc1ccc(-c2cc(-c3cc(-c4ccc(O)cc4)no3)on2)cc1,> 100,> 100,> 100,> 100,> 100,> 100,> 100,> 100,> 100,> 100,> 100,> 100,> 100,> 100,> 100,> 100,> 100,> 100
C=CCN1C(=O)/C(=C/c2cccs2)N=C1SC/C=C/C,> 100,> 100,> 100,> 100,> 100,> 100,> 100,96.6,> 100,98.8,> 100,> 100,> 100,> 100,> 100,62.2,> 100,> 100
O=c1[nH]cc(-c2c[nH]c3ccccc23)nc1-c1c[nH]c2ccccc12,43.3,19,9.21,23.3,18.1,29.8,41.9,24.1,31.5,27.9,28.7,39.9,24.6,25,28.1,,> 100,26.2
CN(C)c1ccc(C(Cc2ccccc2)C2NC(=S)NC2=O)cc1 (stereo not given),> 100,> 100,> 100,> 100,> 100,> 100,> 100,> 100,> 100,> 100,> 100,> 100,> 100,> 100,> 100,> 100,> 100,> 100
C=CCC1(OCc2ccccc2)C(=O)C(=O)OC1C1COC(C)(C)O1 (stereo not given),> 100,> 100,> 100,> 100,> 100,> 100,> 100,> 100,> 100,> 100,> 100,> 100,> 100,> 100,> 100,> 100,> 100,> 100

# Reference: PubChem BioAssay (NCI)
